One series is filed under the species Rattus norvegicus. Nature of the series: Dose-normalized area under plasma concentration vs time curve in rats. Type of series: ADME, organism-based. To be noted: in vivo.
The nature of series [1]: Plasma clearance in rats. Format: ADME, organism-based. The following applies: rat, read-out: Clp.
The species entered for another series is Canis familiaris. Nature of the series: Dose-normalized area under plasma concentration vs time curve in dogs. Type of series: ADME, organism-based, Canis lupus familiaris. The following applies: dog, in vivo.
Series [2] in a line: Oral bioavailability in dogs. To be noted: dog, in vivo. Format: ADME, organism-based, Canis lupus familiaris.
The nature of series [3]: Plasma clearance in dogs. Format: ADME, organism-based, Canis lupus familiaris. To be noted: dog, read-out: Clp.
A short description of series [4]: Half-life in rats. Format: ADME, organism-based. The following applies: rat, in vivo.
Series [5] is described as follows: Oral bioavailability in rats. To be noted: rat, in vivo. Format: ADME, organism-based.
Series [6] in a line: Half-life in dogs. Format: ADME, organism-based, Canis lupus familiaris. The following applies: dog, in vivo.
The target in another series is Dipeptidyl peptidase 2 (Homo sapiens, UniProt Q9UHL4). Nature of the series: In vitro inhibition of QPP dipeptidylpeptidase II.

On to `N[C@@H](CC(=O)N1CCCNC(=O)[C@H]1CC(F)(F)F)Cc1cc(F)c(F)cc1F`, for which the AUC in the series filed under Rattus norvegicus is on record as 0.2 uM h/(mg/kg); in the series filed under Canis familiaris, 2.2 uM h/(mg/kg). For the same compound, the values for the clearance in series [1] and in [3] were 94 mL/min/kg and 18 mL/min/kg, respectively. The bioavailability (usually the share of a dose that reaches the circulation, judged against a reference dose that is usually intravenous) in [2] was 95%; in series [5], 36%. Besides, the half-life – broadly, the time needed for the level to fall by half in the phase considered – in series [4] is 2 h; in [6] it was 9 h.

For the compound `N[C@@H](CC(=O)N1CCCNC(=O)C1)Cc1cc(F)c(F)cc1F`, the IC50 (as a rule, the concentration that gives 50% inhibition) against Dipeptidyl peptidase 2 is > 100 µM.

Turning to `C[C@@H]1C(=O)NCCCN1C(=O)C[C@H](N)Cc1cc(F)c(F)cc1F`, the AUC in the series filed under Rattus norvegicus is listed as 0.15 uM h/(mg/kg); in the series filed under Canis familiaris it was 8.5 uM h/(mg/kg). The clearance is 88 mL/min/kg in series [1] and 9 mL/min/kg in series [3]. The bioavailability in series [2] was 100%; in series [5], 26%. Besides, the half-life in [4] is 1 h; in [6] it was 4.3 h.

For the origin of these results see ChEMBL document CHEMBL1137590, “(3R)-4-[(3R)-3-Amino-4-(2,4,5-trifluorophenyl)butanoyl]-3-(2,2,2-trifluoroethyl)-1,4-diazepan-2-one, a selective dipeptidyl peptidase IV inhibitor for the treatment of type 2 diabetes” (Bioorg Med Chem Lett, 2007).
